# Test results reported in patent US20090274739A1, “METHODS AND COMPOSITIONS FOR TREATING NEOINTIMAL HYPERPLASIA” (THE TRUSTEES OF COLUMBIA UNIVERSITY IN THE CITY OF NEW YORK, priority 2006, published 2009).
# Entries after “also recorded” stand apart in the source; their conditions may differ.
# Legend:
# [1] = tested on: primary murine aortic vascular smooth muscle cells (VSMC); assay: VSMC proliferation assay (Coulter counter / MTS-based); type: cell-based, mouse
# Procedure: The methods used in the above experiments were as follows: Cell Culture and VSMC Proliferation Assays. Primary VSMC were isolated from aortic explants of wildtype, ob/ob, or db/db mice in the method of Roque et al. 30. VSMC were routinely cultured in Dulbecco's Modified Eagle's Medium (DMEM) containing either 4500 or 1250 mg/L glucose supplemented with 20% FBS at 37° C. in a 5% CO2 incubator. […] Cells were plated at 200,000 cells/ well of a 6 well dish and subsequently serum starved for 72 hr in DMEM media supplemented with 0.1 % FBS. Leptin dissolved in PBS was added directly to serum-free media at concentrations of 1, 10, or 100 ng/ml with […] LY294002 or U0126, and cells were grown for another 72 hr before harvesting. VSMC proliferation was measured by counting samples using a Coulter counter or using the Cell Titre 96 Aqueous One Solution Cell Proliferation Assay kit (Promega). Cell viability was assessed by Trypan Blue staining.
# Proliferation of VSMCs: VSMC proliferation was measured by counting triplicate samples using a Coulter counter or using the CellTitier 96 Aqueous One Solution Cell Proliferation Assay (Promega, Madison, Wis.) kit per manufacturer's instructions. Cell viability was assessed via staining with Trypan Blue.
# Murine VSMCs (2×10^4 cells/well) were incubated in a 6-well tissue culture plate for 72 hours in DMEM containing 0.1% FBS with or without insulin (10 or 100 nmol/L) and with 0, 1, 10, or 100 nmol/L rapamycin. Triplicate samples were counted using a Coulter counter and were normalized as percentage of the control group. Cell viability was checked via Trypan blue staining.
# Murine VSMCs, seeded 2×10^4 cells/well in a 6-well plate, were starved for 72 hrs in DMEM with 0.1% FBS. Rapamycin, leptin, or insulin in different concentrations indicated in the figure were incubated with VSMCs in DMEM with 0.1% of FBS for 72 hrs. Triplicate samples were counted via a Coulter counter. Cell viability was checked via Trypan blue staining. […] In panel C, VSMCs were exposed to U0126, a specific MEK1/2 inhibitor, or LY294002, a specific PI3K inhibitor.
# Primary VSMC were isolated from aortic explants of WT, ob/ob, or db/db mice (46). VSMC proliferation was determined using the Cell Titre Aqueous One Solution Proliferation Assay (Promega, Madison, Wis.). Migration to PDGF-BB was assessed in a modified Boyden chamber assay (47).
# [2] = tested on: murine femoral artery wire injury model (neointimal hyperplasia); assay: Femoral artery wire injury model, morphometry of neointimal formation; type: in vivo, mouse; parameters: Lumen / Media / Intima / TVA (total vessel area): unit not given here
# From the text: Animal Models and Drug Treatments. Wild type C57BL/6J background mice and mice deficient for leptin (C57BL/6J-Lepob; ob/ob) or the leptin receptor (C57BL/6J-m+/+Lepdb; db/db) were purchased from Charles Jackson Laboratories, Maine. Mice were obtained at ages 6-8 weeks old and average weight 15 g. Animals were fed standard rodent chow and tap water ad libitum. Procedures and animal care were approved by the Institutional Animal Care and Use Committee. Mice were subjected to femoral artery wire injury or sham injury described below 24 hr prior to starting pharmacological treatments. Sirolimus was administered by intraperitoneal injection once per day for 14 days as a suspension in 0.2% sodium carboxymethyl cellulose and 0.25% polysorbate-80; duplicate experiments were accomplished with 0.5% DMSO. Leptin or LY294002 was administered by intraperitoneal injection once per day for 14 days as a suspension in PBS. Plasma leptin levels were measured at baseline, 3, 6, and 10 hr after leptin injection using an ELISA assay (R&D). Leptin plus the vehicle used for both sirolimus and LY294002 was used as the control group for the treatment groups with sirolimus and LY294002. After the 2-week treatment, animals were processed for femoral artery morphometry.
# Femoral Artery Injury Model. Endoluminal injury of bilateral femoral arteries was performed according to the method of Roque et al. with minor modification 27. […] Briefly, to denude and dilate femoral arteries, a 0.014″ angioplasty guidewire (Guidant) was passed endoluminally 3 times to the level of the aortic bifurcation. A sham protocol was performed where the arteries underwent dissection, clamping, and ligature without passage of the guidewire.
# Computer-aided quantitative morphometry to measure luminal, medial, intimal, and vessel areas were performed as previously described 27 with minor modification. Mice were euthanized via CO2 asphyxiation prior to en bloc excision of hind limbs. Briefly, multiple segments of the common femoral artery at the level of injury were fixed in 10% Zinc Formalin, embedded in paraffin, sectioned at […] thickness, and subjected to Elastic-Van Gieson staining at a Columbia University Core Histology facility. In many cases, arteries underwent immunohistochemical staining for smooth muscle a-actin to highlight the media and neointima. Photomicrographs were captured on Adobe Photoshop 7.0 and transferred to Scion Image software for quantitative analysis. Specimens were analyzed by two independent operators blinded to the treatment groups. Microsoft Excel software was used to calculate the RNI values from I/M ratios in the absence and presence of pharmacological inhibitors, as detailed in the text.
# Surgical Procedures: The mouse femoral artery wire injury model of was used with minor modifications (Roque M, et al., Arterioscler Thromb Vasc Biol, 2000, 20(2):335-42). Briefly, forty-two male mice were studied. Endoluminal injury to the common femoral artery was produced by either 3 passages of a 0.014″ diameter angioplasty guidewire (Guidant, Santa Clara, Calif.). […] While being viewed under a surgical microscope, a groin incision was made and the femoral artery was isolated and temporarily clamped distal to the inguinal ligament. An arteriotomy was performed and the guidewire was passed 3 times to the level of the aortic bifurcation. The artery was then ligated proximal to the arteriotomy. A sham protocol was carried out on the contralateral side where the arteries underwent dissection, temporary clamping, and ligature, without passage of the wire. The formation of the neointima was confirmed in this model as being comprised mainly of VSMCs through immunohistochemical staining of representative sections for α-smooth muscle actin via a commercial kit (Sigma).
# For all treatment protocols, rapamycin was administered by intraperitoneal injection once per day, for 14 days, as a suspension in 0.2% sodium carboxymethyl cellulose and 0.25% polysorbate-80. […]
# [3] = tested on: Akt Thr-308 phosphorylation; assay: Akt Thr-308 phosphorylation in descending aorta homogenates after i.p. treatment; type: in vivo; conditions: Mus musculus, ip, 168 h; LY294002 1.2 mg/kg/day i.p., 7 days; read-out: inhibition of basal Thr-308 phosphorylation of Akt in descending aortas
# From the text: Animals were processed for femoral artery morphometry after the 14-day drug treatments. For assessing LY294002 efficacy in vivo, descending aortas from mice treated with LY294002 or vehicle were harvested after 7 days of treatment; 3-4 aortas were pooled for immunoblot assessment of Akt phosphorylation.
# [4] = tested on: primary murine aortic vascular smooth muscle cells (VSMC); assay: VSMC proliferation assay (Coulter counter / MTS-based); type: cell-based, mouse; conditions: Example 5; 6 nM leptin; inhibitor 10 μM
# [5] = tested on: cultured porcine coronary arteries; conditions: LY294002 10 μM; cited from earlier work
# [6] = wire injury + leptin 0.4 mg/kg, LY 1.2 mg/kg daily i.p. 14 days, mean ± SD
structure (smiles),measurement,setting,value
"O=c1cc(N2CCOCC2)oc2c(-c3ccccc3)cccc12 [LY294002, 2-(4-morpholinyl)-8-phenyl-4H-1-benzopyran-4-one]",effect on leptin-induced proliferation of murine VSMC,"[1]; Example 1, 100 ng/mL leptin, inhibitor 10 mM, 72 hr",did inhibit
same,VSMC proliferation induced by leptin and insulin,[1]; LY294002 compared with 100 nmol/L rapamycin alone,more pronounced effect
same,inhibition of leptin-induced neointimal formation,"[2]; LY294002 1.2 mg/kg/d alone, leptin 0.4 mg/kg/d, 14 days",partially inhibited; also recorded: not the LY294002 alone group revealed a complete inhibition
same,relative neointimal inhibition (RNI),"[2]; LY294002 1.2 mg/kg, leptin 0.4 mg/kg",0.70
same,I/M (intima:media ratio),[2]; [6],0.574 ± 0.186
same,Intima,[2]; [6],0.010 ± 0.003
same,Lumen,[2]; [6],0.013 ± 0.002
same,Media,[2]; [6],0.020 ± 0.003
same,TVA (total vessel area),[2]; [6],0.044 ± 0.006
same,inhibition at 1.2 mg/kg/day,[3],> 80%
same,effect on leptin-induced VSMC proliferation,[4],inhibited
same,neointimal hyperplasia in cultured porcine coronary arteries,[5],prevents neointimal hyperplasia
